Source: PubChem BioAssay AID248 (DTP/NCI, 2004)
Where “and” joins values, the source holds several entries; their conditions need not be identical. Equal values may be shown once. Inconclusive results and toxic doses are left out.

System: L1210 leukemia ip in BDF1 mice, survival T/C
Experiment: NCI In Vivo Anticancer Drug Screen. Data for tumor model L1210 Leukemia (intraperitoneal) in B6D2F1 (BDF1) mice
Details: endpoint: mean survival time, higher = longer survival
Procedure, shortened: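 In this screen, tumor-bearing mice given compound are compared to those given vehicle, and their survival values are reported as a treated-to-control quotient.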

[1] = dose: 100.0 mg/kg/injection, schedule: Q04DX003 (ip), vehicle: saline with Tween-80
[2] = dose: 100.0 mg/kg/injection, schedule: Q01DX001 (ip), vehicle: saline
[3] = dose: 200.0 mg/kg/injection, schedule: Q01DX001 (ip), vehicle: saline
[4] = dose: 50.0 mg/kg/injection, schedule: Q01DX001 (ip), vehicle: saline
[5] = dose: 100.0 mg/kg/injection, schedule: Q01DX001 (ip), vehicle: carboxymethylcellulose (CMC)
[6] = dose: 200.0 mg/kg/injection, schedule: Q01DX001 (ip), vehicle: carboxymethylcellulose (CMC)
[7] = dose: 400.0 mg/kg/injection, schedule: Q01DX001 (ip), vehicle: carboxymethylcellulose (CMC)

CCCCC/C(C)=N\Nc1ccccn1
T/C (dose: 12.5 mg/kg/injection, schedule: Q01DX009 (ip), vehicle: Klucel (hydroxypropylcellulose) (HPC)): 98 % of control
T/C (dose: 25.0 mg/kg/injection, schedule: Q01DX009 (ip), vehicle: Klucel (hydroxypropylcellulose) (HPC)): 100 % of control
T/C (dose: 25.0 mg/kg/injection, schedule: Q01DX009 (ip), vehicle: acetone): 97 % of control
T/C (dose: 50.0 mg/kg/injection, schedule: Q01DX001 (ip), vehicle: acetone): 100 % of control
T/C (dose: 50.0 mg/kg/injection, schedule: Q01DX009 (ip), vehicle: Klucel (hydroxypropylcellulose) (HPC)): 104 % of control
T/C (dose: 50.0 mg/kg/injection, schedule: Q01DX009 (ip), vehicle: acetone): 100 % of control
T/C (dose: 50.0 mg/kg/injection, schedule: Q04DX003 (ip), vehicle: Klucel (hydroxypropylcellulose) (HPC)): 95 % of control
T/C (dose: 50.0 mg/kg/injection, schedule: Q04DX003 (ip), vehicle: saline with Tween-80): 100 % of control
T/C (dose: 100.0 mg/kg/injection, schedule: Q01DX001 (ip), vehicle: acetone): 102 % of control
T/C (dose: 100.0 mg/kg/injection, schedule: Q01DX009 (ip), vehicle: acetone): 88 % of control
T/C (dose: 100.0 mg/kg/injection, schedule: Q04DX003 (ip), vehicle: Klucel (hydroxypropylcellulose) (HPC)): 101 % of control
T/C [1]: 100 % of control
T/C (dose: 200.0 mg/kg/injection, schedule: Q01DX001 (ip), vehicle: acetone): 94 % of control
T/C (dose: 200.0 mg/kg/injection, schedule: Q04DX003 (ip), vehicle: Klucel (hydroxypropylcellulose) (HPC)): 106 % of control

CCOC(=O)c1[nH]c(C)c(C(=O)OCC)c1-c1ccccc1
T/C (dose: 100.0 mg/kg/injection, schedule: Q01DX001 (ip), vehicle: saline with Tween-80): 98 % of control
T/C (dose: 200.0 mg/kg/injection, schedule: Q01DX001 (ip), vehicle: saline with Tween-80): 106 % of control
T/C (dose: 400.0 mg/kg/injection, schedule: Q01DX001 (ip), vehicle: saline with Tween-80): 100 % of control

CC1(C)N=C(N)N=C(N)N1c1cccc(S(=O)(=O)F)c1
T/C (dose: 0.8 mg/kg/injection, schedule: Q01DX009 (ip), vehicle: saline): 95 % of control
T/C (dose: 4.0 mg/kg/injection, schedule: Q01DX009 (ip), vehicle: saline): 95 % of control
T/C (dose: 20.0 mg/kg/injection, schedule: Q01DX009 (ip), vehicle: saline): 100 % of control
T/C [2]: 100 % of control
T/C [3]: 102 % of control

Clc1ccc(OCc2ccccc2)c(Cl)c1
T/C (dose: 100.0 mg/kg/injection, schedule: Q04DX002 (ip), vehicle: Klucel (hydroxypropylcellulose) (HPC)): 106 % of control
T/C (dose: 200.0 mg/kg/injection, schedule: Q04DX002 (ip), vehicle: Klucel (hydroxypropylcellulose) (HPC)): 106 % of control
T/C (dose: 400.0 mg/kg/injection, schedule: Q04DX002 (ip), vehicle: Klucel (hydroxypropylcellulose) (HPC)): 95 % of control

Cc1cc(=O)c2cc(Cc3ccc4[nH]c(C)cc(=O)c4c3)ccc2[nH]1
T/C (dose: 50.0 mg/kg/injection, schedule: Q01DX009 (ip), vehicle: saline): 91 % of control
T/C (dose: 100.0 mg/kg/injection, schedule: Q01DX009 (ip), vehicle: saline): 88 % of control
T/C (dose: 100.0 mg/kg/injection, schedule: Q04DX003 (ip), vehicle: saline): 94 % of control
T/C (dose: 200.0 mg/kg/injection, schedule: Q04DX003 (ip), vehicle: saline): 94 % of control
T/C (dose: 400.0 mg/kg/injection, schedule: Q04DX003 (ip), vehicle: saline): 93 % of control

Cc1[nH]c(=S)oc1C
T/C (dose: 75.0 mg/kg/injection, schedule: Q01DX001 (ip), vehicle: other): 105 % of control
T/C (dose: 150.0 mg/kg/injection, schedule: Q01DX001 (ip), vehicle: other): 97 % of control
T/C (dose: 300.0 mg/kg/injection, schedule: Q01DX001 (ip), vehicle: other): 103 % of control

O=C1c2cccc(S(=O)(=O)O)c2C(=O)c2cccc(S(=O)(=O)O)c21
T/C [4]: 102 % of control
T/C [2]: 109 % of control
T/C [3]: 111 % of control
T/C (dose: 400.0 mg/kg/injection, schedule: Q01DX001 (ip), vehicle: saline): 109 % of control

O=C(Nc1cccc(Cl)c1)Nc1ccccc1Cl
T/C (dose: 100.0 mg/kg/injection, schedule: Q01DX009 (ip), vehicle: saline with Tween-80): 100 % of control
T/C (dose: 200.0 mg/kg/injection, schedule: Q01DX009 (ip), vehicle: saline with Tween-80): 97 % of control
T/C (dose: 400.0 mg/kg/injection, schedule: Q01DX009 (ip), vehicle: saline with Tween-80): 96 % of control

O=C(Nc1ccc(C2=NCCN2)cc1)c1c(F)c(F)c(C(=O)Nc2ccc(C3=NCCN3)cc2)c(F)c1F
T/C (dose: 1.87 mg/kg/injection, schedule: Q01DX015 (ip), vehicle: methylcellulose (MC)): 103 % of control
T/C (dose: 3.75 mg/kg/injection, schedule: Q01DX015 (ip), vehicle: methylcellulose (MC)): 101 % of control
T/C (dose: 7.5 mg/kg/injection, schedule: Q01DX015 (ip), vehicle: methylcellulose (MC)): 121 % of control
T/C (dose: 37.0 mg/kg/injection, schedule: Q01DX015 (ip), vehicle: methylcellulose (MC)): 95 % of control

O=C(O)C(F)(F)F.[Cu+2]
T/C (dose: 12.5 mg/kg/injection, schedule: Q04DX002 (ip), vehicle: saline): 98 % of control
T/C (dose: 25.0 mg/kg/injection, schedule: Q04DX002 (ip), vehicle: saline): 95 % of control

CCS(=O)(=O)c1ccc(NC(=O)Oc2cc(C)ccc2C(C)C)cc1
T/C [5]: 91 % of control
T/C [6]: 96 % of control
T/C [7]: 94 % of control

C[n+]1ccc(NC(=O)c2ccc(NC(=O)c3cccc(C(=O)Nc4ccc(C(=O)Nc5cc[n+](C)cc5)cc4)c3)cc2)cc1
T/C (dose: 1.25 mg/kg/injection, schedule: Q01DX Z (ip), vehicle: carboxymethylcellulose (CMC)): 108 % of control
T/C (dose: 2.5 mg/kg/injection, schedule: Q01DX Z (ip), vehicle: carboxymethylcellulose (CMC)): 113 % of control
T/C (dose: 5.0 mg/kg/injection, schedule: Q01DX Z (ip), vehicle: carboxymethylcellulose (CMC)): 108 % of control
T/C (dose: 10.0 mg/kg/injection, schedule: Q01DX Z (ip), vehicle: carboxymethylcellulose (CMC)): 111 % of control
T/C (dose: 20.0 mg/kg/injection, schedule: Q01DX Z (ip), vehicle: carboxymethylcellulose (CMC)): 161 % of control
T/C (dose: 40.0 mg/kg/injection, schedule: Q01DX Z (ip), vehicle: carboxymethylcellulose (CMC)): 166 % of control
T/C (dose: 62.0 mg/kg/injection, schedule: Q01DX Z (oral), vehicle: carboxymethylcellulose (CMC)): 97 % of control
T/C (dose: 80.0 mg/kg/injection, schedule: Q01DX Z (ip), vehicle: carboxymethylcellulose (CMC)): 188 % of control
T/C (dose: 125.0 mg/kg/injection, schedule: Q01DX Z (oral), vehicle: carboxymethylcellulose (CMC)): 98 % of control
T/C (dose: 160.0 mg/kg/injection, schedule: Q01DX Z (ip), vehicle: carboxymethylcellulose (CMC)): 153 % of control
T/C (dose: 250.0 mg/kg/injection, schedule: Q01DX Z (oral), vehicle: carboxymethylcellulose (CMC)): 112 % of control
T/C (dose: 500.0 mg/kg/injection, schedule: Q01DX Z (oral), vehicle: carboxymethylcellulose (CMC)): 108 % of control

CCCCCCCCCCCCCCCCS(=O)(=O)N/N=C/c1ccc(Cl)cc1Cl
T/C [5]: 98 % of control
T/C [6]: 101 % of control
T/C [7]: 107 % of control

Cc1ccc(S(=O)(=O)OCCN(CCOS(=O)(=O)c2ccc(C)cc2)c2cccc(F)c2)cc1
T/C (dose: 50.0 mg/kg/injection, schedule: Q01DX001 (ip), vehicle: carboxymethylcellulose (CMC)): 101 % of control and 114 % of control
T/C (dose: 90.0 mg/kg/injection, schedule: Q01DX001 (ip), vehicle: carboxymethylcellulose (CMC)): 103 % of control and 122 % of control
T/C [5]: 103 % of control and 106 % of control
T/C (dose: 135.0 mg/kg/injection, schedule: Q01DX001 (ip), vehicle: carboxymethylcellulose (CMC)): 106 % of control and 110 % of control
T/C (dose: 300.0 mg/kg/injection, schedule: Q01DX001 (ip), vehicle: carboxymethylcellulose (CMC)): 115 % of control and 120 % of control
T/C [7]: 109 % of control and 116 % of control

CCCCCCNC(=O)Oc1cccc(NC(=O)CC)c1
T/C [1]: 104 % of control
T/C (dose: 200.0 mg/kg/injection, schedule: Q04DX003 (ip), vehicle: saline with Tween-80): 88 % of control
T/C (dose: 400.0 mg/kg/injection, schedule: Q04DX003 (ip), vehicle: saline with Tween-80): 102 % of control

CCOC(=O)/C(=C/c1ccc(OC)c(OC)c1)P(=O)(OCC)OCC
T/C [4]: 101 % of control
T/C [2]: 95 % of control

CN(C(=N)N)c1ccc(C(=O)Oc2ccc([N+](=O)[O-])cc2)cc1
T/C (dose: 50.0 mg/kg/injection, schedule: Q01DX009 (ip), vehicle: water): 90 % of control
T/C (dose: 100.0 mg/kg/injection, schedule: Q01DX009 (ip), vehicle: water): 97 % of control and 105 % of control
T/C (dose: 100.0 mg/kg/injection, schedule: Q04DX003 (ip), vehicle: water): 103 % of control
T/C (dose: 200.0 mg/kg/injection, schedule: Q01DX009 (ip), vehicle: water): 96 % of control and 100 % of control
T/C (dose: 200.0 mg/kg/injection, schedule: Q04DX003 (ip), vehicle: water): 100 % of control
